According to PubChem BioAssay (NCI):
Where “and” joins values, the source holds several entries; their conditions need not be identical. Identical values can stand only once.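 Values below derive from 48-hour exposures of cells grown in 96-well plates, with endpoints linearly interpolated between the two concentrations bracketing the appropriate inhibition level. The concentration for 50% growth inhibition is given as GI50. TGI: total growth inhibition.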

Key:
Assay in all cases: NCI anticancer screen, dose series, 48 h
786-0 renal = tested on: 786-0 renal
CCRF-CEM leukemia = tested on: CCRF-CEM leukemia
HCT-15 colon = tested on: HCT-15 colon
HOP-62 NSCLC = tested on: HOP-62 NSCLC
MCF7 breast = tested on: MCF7 breast
NCI-H226 lung = tested on: NCI-H226 lung
NCI/ADR-RES ovarian = tested on: NCI/ADR-RES ovarian
OVCAR-5 ovarian = tested on: OVCAR-5 ovarian
SF-539 CNS = tested on: SF-539 CNS
SNB-75 CNS = tested on: SNB-75 CNS

`COC1OC(C(C)O)C2OC(C)(C)OC12` (configuration not stated) showed a TGI (786-0 renal) of over 100 µM, a TGI (CCRF-CEM leukemia) of over 100 µM and a TGI (HCT-15 colon) of over 100 µM. It also gave a TGI (HOP-62 NSCLC) of over 100 µM, a TGI (MCF7 breast) of over 100 µM and a TGI (NCI-H226 lung) of over 100 µM. The TGI (NCI/ADR-RES ovarian) was over 100 µM, the TGI (OVCAR-5 ovarian) was over 100 µM and the TGI (SF-539 CNS) was over 100 µM. For the same molecule, the TGI (SNB-75 CNS) was over 100 µM.

With `Cc1ccc([N+](=O)[O-])c2c(NCCC[N+](C)(C)[O-])ccnc12` the TGI (786-0 renal) was over 100 µM, the TGI (CCRF-CEM leukemia) was over 100 µM and the TGI (HOP-62 NSCLC) was over 100 µM. The TGI (MCF7 breast) was 38.1 µM, the TGI (NCI-H226 lung) was over 100 µM and the TGI (NCI/ADR-RES ovarian) was over 100 µM. For the same molecule, the TGI (OVCAR-5 ovarian) was 84.3 µM, the TGI (SF-539 CNS) was over 100 µM and the TGI (SNB-75 CNS) was over 100 µM.

`COc1cc2c3cc1Oc1c(OC)c(OC)cc4c1C(Cc1ccc(cc1)Oc1cc(ccc1O)CC3N(C)CC2)N(C)CC4` (configuration not stated) was tested, and the GI50 (786-0 renal) was > 100 µM and 10.2 µM, the TGI (786-0 renal) was > 100 µM and 38.5 µM and the GI50 (CCRF-CEM leukemia) was 6.96 µM and 2.78 µM. The TGI (CCRF-CEM leukemia) was 58.3 µM and 24.7 µM, the GI50 (HCT-15 colon) was 8.8 µM and 3.19 µM and the TGI (HCT-15 colon) was 23.2 µM and 14.3 µM. For the same molecule, the TGI (HOP-62 NSCLC) was 34.7 µM, the TGI (MCF7 breast) was 20.8 µM and the TGI (NCI-H226 lung) was 40.6 µM and 37.5 µM. For the same molecule, the TGI (NCI/ADR-RES ovarian) was 60.5 µM, the TGI (OVCAR-5 ovarian) was 67.4 µM and 29.6 µM and the GI50 (SF-539 CNS) was 11.4 µM and 1.56 µM. For the same molecule, the TGI (SF-539 CNS) was 23.6 µM and 3.81 µM and the TGI (SNB-75 CNS) was 25.3 µM and 23.8 µM.

In the case of `Clc1ccc(/C=C/c2nc(Cl)c(-c3ccc(Cl)cc3)c(Cl)n2)cc1`, the TGI (786-0 renal) is reported as over 100 µM, the TGI (CCRF-CEM leukemia) is reported as 84.8 µM and the TGI (HCT-15 colon) is reported as over 100 µM. It also gave a TGI (HOP-62 NSCLC) of over 100 µM, a TGI (MCF7 breast) of over 100 µM and a TGI (NCI-H226 lung) of over 100 µM. It also gave a TGI (NCI/ADR-RES ovarian) of over 100 µM, a TGI (OVCAR-5 ovarian) of over 100 µM and a TGI (SF-539 CNS) of over 100 µM. The TGI (SNB-75 CNS) was 64.5 µM.

Work on `Cc1c(C(N)=O)sc2c1c(=O)n(Cc1ccccc1)c1nnc(S(=O)(=O)CC(=O)Nc3ccc(Cl)cc3)n21` yielded a GI50 (786-0 renal) of 3.07 µM, a TGI (786-0 renal) of 12.2 µM and a GI50 (CCRF-CEM leukemia) of 10.9 µM. The TGI (CCRF-CEM leukemia) was 43.1 µM, the GI50 (HCT-15 colon) was 38.6 µM and the TGI (HCT-15 colon) was over 100 µM. For the same molecule, the GI50 (HOP-62 NSCLC) was 2.51 µM, the TGI (HOP-62 NSCLC) was 5.99 µM and the GI50 (MCF7 breast) was 4.76 µM. For the same molecule, the TGI (MCF7 breast) was 70.2 µM, the GI50 (NCI-H226 lung) was 4.83 µM and the TGI (NCI-H226 lung) was 19.8 µM. For the same molecule, the GI50 (NCI/ADR-RES ovarian) was 20.2 µM, the TGI (NCI/ADR-RES ovarian) was 63.4 µM and the GI50 (OVCAR-5 ovarian) was 10.9 µM. The TGI (OVCAR-5 ovarian) was 52.1 µM, the GI50 (SF-539 CNS) was 2.75 µM and the TGI (SF-539 CNS) was 6.5 µM. The GI50 (SNB-75 CNS) was 2.15 µM and the TGI (SNB-75 CNS) was 5.48 µM.

`CN(CCCN(C)CCC1CCCCC1)CCC1CCCCC1` was tested, and the GI50 (786-0 renal) was 3.46 µM, the TGI (786-0 renal) was 13.7 µM and the GI50 (CCRF-CEM leukemia) was 3.03 µM. The TGI (CCRF-CEM leukemia) was 21.7 µM, the GI50 (HCT-15 colon) was 2.02 µM and the TGI (HCT-15 colon) was 8.21 µM. The GI50 (HOP-62 NSCLC) was 5.3 µM, the TGI (HOP-62 NSCLC) was 17.7 µM and the GI50 (MCF7 breast) was 1.62 µM. For the same molecule, the TGI (MCF7 breast) was 3.28 µM, the GI50 (NCI-H226 lung) was 2.57 µM and the TGI (NCI-H226 lung) was 11.9 µM. It also gave a GI50 (NCI/ADR-RES ovarian) of 6.6 µM, a TGI (NCI/ADR-RES ovarian) of 20.1 µM and a GI50 (OVCAR-5 ovarian) of 2.98 µM. It also gave a TGI (OVCAR-5 ovarian) of 10.7 µM, a GI50 (SF-539 CNS) of 1.7 µM and a TGI (SF-539 CNS) of 3.53 µM. The GI50 (SNB-75 CNS) was 2.04 µM and the TGI (SNB-75 CNS) was 6.39 µM.

Work on `CC1=NN(C(=O)c2nn(-c3ccc(Cl)cc3)cc2O)C(=O)C1` yielded a GI50 (786-0 renal) of 5.33 µM, a TGI (786-0 renal) of over 60.4 µM and a GI50 (CCRF-CEM leukemia) of 0.608 µM. The TGI (CCRF-CEM leukemia) was over 22 µM, the GI50 (HCT-15 colon) was 0.845 µM and the TGI (HCT-15 colon) was over 100 µM. The GI50 (HOP-62 NSCLC) was 1.13 µM, the TGI (HOP-62 NSCLC) was over 77.6 µM and the GI50 (MCF7 breast) was 4.65 µM. For the same molecule, the TGI (MCF7 breast) was over 100 µM, the GI50 (NCI-H226 lung) was 3.17 µM and the TGI (NCI-H226 lung) was over 67.5 µM. The GI50 (NCI/ADR-RES ovarian) was 1.83 µM, the TGI (NCI/ADR-RES ovarian) was over 52.2 µM and the TGI (OVCAR-5 ovarian) was over 78.9 µM. It also gave a GI50 (SF-539 CNS) of 1.9 µM, a TGI (SF-539 CNS) of over 87.4 µM and a GI50 (SNB-75 CNS) of 0.532 µM. For the same molecule, the TGI (SNB-75 CNS) was over 100 µM.

For `CCN(CC)CCC(=O)O[C@H]1CC[C@H](CC(C)[C@H]2CC(=O)C(C)C=C(C)[C@H](OC(=O)CCN(CC)CC)C(OC)C(=O)[C@@H](C)CC(C)/C=C/C=C/C=C(C)C(OC)CC3CC[C@H](C)[C@](O)(O3)C(=O)C(=O)N3CCCCC3C(=O)O2)CC1OC` (some centres not stated), the TGI (786-0 renal) was 2.47 µM and 1.72 µM, the TGI (CCRF-CEM leukemia) was > 10 µM and 1.57 µM and the GI50 (HCT-15 colon) was 0.0922 µM. The TGI (HCT-15 colon) was 4.46 µM and 3.84 µM, the GI50 (HOP-62 NSCLC) was 0.00257 µM and 0.00547 µM and the TGI (HOP-62 NSCLC) was 1.73 µM and 2.75 µM. For the same molecule, the TGI (MCF7 breast) was 3.54 µM and 3.78 µM, the GI50 (NCI-H226 lung) was 1.21 µM and the TGI (NCI-H226 lung) was 3.68 µM and 3.34 µM. For the same molecule, the TGI (NCI/ADR-RES ovarian) was 8.13 µM and 6.58 µM, the GI50 (OVCAR-5 ovarian) was 1.63 µM and the TGI (OVCAR-5 ovarian) was 8.16 µM and 7.73 µM. For the same molecule, the TGI (SF-539 CNS) was 1.99 µM and 1.81 µM, the GI50 (SNB-75 CNS) was 0.1 µM and the TGI (SNB-75 CNS) was 1.77 µM and 0.55 µM.
